Assay [1] deals with T1, 5-HT1Dβ receptor (Homo sapiens, UniProt P28222).
T1 construct: expressed in transfected cells
In words: biochemical. It is filed as binding. Particulars: for Ki: 3H-5HT, membranes of recombinant cells, 15 minute incubation at 37°C; for 5-HT1Dβ/5HT1A: selectivity ratio, 5-HT1A binding with 3H-8-OH-DPAT, 5-HT1Dβ with 3H-5HT.
Protocol: Increasing levels of the test compound were incubated with the radioligand and the membrane homogenates prepared from the recombinant cells. After a 15 minute incubation at 37°C, the incubation was terminated by vacuum filtration. The filters were washed with buffer and the filters were counted for radioactivity using liquid scintillation spectrometry.

Assay [2] deals with T1, 5-HT1Dβ receptor. In words: Inhibition of forskolin-stimulated adenylate cyclase (cAMP radioimmunoassay) in 5-HT1Dβ-presenting CHO cells. Type of assay: cell-based.
Protocol: CAMP levels were determined using a radioimmunoassay kit containing antibody specific for cAMP and radioiodinated cAMP. The amount of the compound that inhibited 50% of the forskolin-stimulated adenylate cyclase activity was determined from the inhibition curve data subjected to computer assisted analysis (Figure 1).

Structures can show the parent of a compound that is named as a salt.

T1 sequence (P28222 whole entry): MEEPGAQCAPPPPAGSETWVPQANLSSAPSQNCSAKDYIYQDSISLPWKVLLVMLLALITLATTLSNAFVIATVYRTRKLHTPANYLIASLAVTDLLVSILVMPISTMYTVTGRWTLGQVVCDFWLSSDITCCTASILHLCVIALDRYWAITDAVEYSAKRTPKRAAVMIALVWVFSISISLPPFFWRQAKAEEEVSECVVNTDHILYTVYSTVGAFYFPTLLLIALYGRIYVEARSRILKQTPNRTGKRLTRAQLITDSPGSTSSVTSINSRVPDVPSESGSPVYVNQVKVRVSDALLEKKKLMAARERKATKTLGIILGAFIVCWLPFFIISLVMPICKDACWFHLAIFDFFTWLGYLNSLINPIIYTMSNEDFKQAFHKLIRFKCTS

As to `Cl.NCCc1c[nH]c2ccc(OCCCCCCCCO)cc12` [Example 5, 3-(2-aminoethyl)-5-(8-hydroxyoctyloxy)-indole hydrochloride], on 5-HT1Dβ receptor [1], the inhibition constant (Ki) (usually the dissociation constant of the complex between target and ligand, obtained from inhibition or displacement) stood at 0.3 nM; the 5-HT1Dβ/5HT1A is 119. For the same compound, on 5-HT1Dβ receptor [2], the midpoint of the response, the EC50, lay at 200 nM. Moreover, at 5-HT1Dβ receptor [2] (CHO, read-out: % Inhib. cAMP), the inhibition at 0.001 µM turned out to be 0%, the inhibition at 0.01 µM came out at 11%, the inhibition at 0.1 µM turned out to be 33% and the inhibition at 1 µM was 92%.
`CCOCCCCCCOc1ccc2[nH]cc(CCN)c2c1` [Example 8, 3-(2-aminoethyl)-5-(6-ethyloxyhexyloxy)-indole hydrochloride]: at 5-HT1Dβ receptor [1], the inhibitory constant (Ki) is 0.4 nM and the 5-HT1Dβ/5HT1A is 180.
For the compound `CCCCOCCCCOc1ccc2[nH]cc(CCN)c2c1` [Example 9, 3-(2-aminoethyl)-5-(4-butyloxybutyloxy)-indole hydrochoride], on 5-HT1Dβ receptor [1], the inhibition constant (Ki) was determined as 2.5 nM and the 5-HT1Dβ/5HT1A amounted to 30.
In the case of `CCCCCCCCCOc1ccc2[nH]cc(CCN)c2c1` [Example 4, 3-(2-aminoethyl)-5-nonyloxyindole oxalate], at 5-HT1Dβ receptor [1], the 5-HT1Dβ/5HT1A was determined as 260.
